Measured values reported in ChEMBL document CHEMBL1208761, “Smoothened antagonists for hair inhibition” (Bioorg Med Chem Lett, 2010).
Values after ≈ are worked out from the molar mass of the structure shown. Values joined by “and” are separate entries in the source; they are usually repeats but may differ in a detail not shown here. Equal entries are not always repeated. Active and inactive are the calls of the source. The calls are words filed in the database; no cut-off is given here.

Key:
Protein smoothened [1] = target: T1, Protein smoothened (Homo sapiens, UniProt Q99835); assay: Inhibition of Smoothened transfected in HEK293 cells by transient transfection cell-based assay
T1 sequence (Q99835 whole entry): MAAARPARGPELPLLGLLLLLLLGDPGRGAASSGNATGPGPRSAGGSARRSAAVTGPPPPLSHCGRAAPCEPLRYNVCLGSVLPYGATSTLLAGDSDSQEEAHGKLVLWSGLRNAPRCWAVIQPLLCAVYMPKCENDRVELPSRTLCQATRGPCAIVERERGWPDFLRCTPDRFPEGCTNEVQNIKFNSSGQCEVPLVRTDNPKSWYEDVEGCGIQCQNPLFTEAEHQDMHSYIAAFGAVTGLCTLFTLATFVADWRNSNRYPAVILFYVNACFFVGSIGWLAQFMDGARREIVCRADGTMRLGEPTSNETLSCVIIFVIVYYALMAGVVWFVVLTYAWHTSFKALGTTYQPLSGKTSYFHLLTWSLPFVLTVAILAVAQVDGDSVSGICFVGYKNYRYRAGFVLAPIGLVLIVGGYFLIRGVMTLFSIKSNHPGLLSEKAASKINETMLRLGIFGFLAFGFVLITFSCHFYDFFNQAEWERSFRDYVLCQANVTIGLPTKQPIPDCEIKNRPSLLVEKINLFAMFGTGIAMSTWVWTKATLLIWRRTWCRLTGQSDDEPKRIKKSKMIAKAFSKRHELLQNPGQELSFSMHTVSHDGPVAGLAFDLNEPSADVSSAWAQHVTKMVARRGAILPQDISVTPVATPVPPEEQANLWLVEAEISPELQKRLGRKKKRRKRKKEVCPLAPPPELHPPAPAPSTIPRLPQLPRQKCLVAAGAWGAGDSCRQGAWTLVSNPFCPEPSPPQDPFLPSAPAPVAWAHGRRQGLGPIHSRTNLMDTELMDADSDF

Protein smoothened [2] = target: T1, Protein smoothened; assay: Inhibition of Smoothened transfected in HEK293 cells by binding assay; assay type: cell-based
Mus musculus = species: Mus musculus; assay: Inhibition of hair growth in C3H/HeN mouse model assessed as inhibition of hair growth after 14 days; assay type: functional
[3] = target: T2, 5-hydroxytryptamine receptor 1A (Homo sapiens, UniProt P08908); assay: Binding affinity to 5HT1A receptor
T2 sequence (P08908 whole entry): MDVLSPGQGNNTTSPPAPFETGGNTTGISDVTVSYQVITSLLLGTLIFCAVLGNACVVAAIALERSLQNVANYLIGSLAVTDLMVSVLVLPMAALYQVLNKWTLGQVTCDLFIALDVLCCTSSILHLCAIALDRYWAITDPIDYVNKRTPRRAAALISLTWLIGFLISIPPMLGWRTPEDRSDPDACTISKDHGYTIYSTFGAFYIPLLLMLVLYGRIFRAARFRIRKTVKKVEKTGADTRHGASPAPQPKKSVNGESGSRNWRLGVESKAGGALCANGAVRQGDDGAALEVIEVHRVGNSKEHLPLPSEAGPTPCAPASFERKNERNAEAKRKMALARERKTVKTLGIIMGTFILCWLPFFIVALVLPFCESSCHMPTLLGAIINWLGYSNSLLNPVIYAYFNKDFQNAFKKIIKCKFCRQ

[4] = Binding affinity to calcium channel
[5] = target: 5-hydroxytryptamine receptor 2B (Homo sapiens, UniProt P41595); assay: Binding affinity to 5HT2B receptor
D(1A) dopamine receptor = D(1A) dopamine receptor (Homo sapiens, UniProt P21728); assay: Binding affinity to dopamine D1 receptor
D(1A) dopamine receptor, sequence (P21728 whole entry): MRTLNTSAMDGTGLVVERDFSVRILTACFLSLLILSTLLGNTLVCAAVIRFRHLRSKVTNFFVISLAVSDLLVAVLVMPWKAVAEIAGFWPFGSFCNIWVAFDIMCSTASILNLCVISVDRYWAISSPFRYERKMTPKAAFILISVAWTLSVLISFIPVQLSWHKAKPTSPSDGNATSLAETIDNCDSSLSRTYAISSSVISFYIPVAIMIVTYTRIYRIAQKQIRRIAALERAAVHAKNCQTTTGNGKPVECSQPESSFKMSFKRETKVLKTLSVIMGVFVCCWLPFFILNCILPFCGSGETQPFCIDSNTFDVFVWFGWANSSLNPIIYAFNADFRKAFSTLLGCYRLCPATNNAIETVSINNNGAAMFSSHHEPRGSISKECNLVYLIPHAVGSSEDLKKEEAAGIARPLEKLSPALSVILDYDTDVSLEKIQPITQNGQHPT

[6] = target: Beta-1 adrenergic receptor (Homo sapiens, UniProt P08588); assay: Binding affinity to beta-1 adrenergic receptor
[7] = target: 5-hydroxytryptamine receptor 2A (Homo sapiens, UniProt P28223); assay: Binding affinity to 5HT2A receptor
5-hydroxytryptamine receptor 2A, sequence (P28223 whole entry): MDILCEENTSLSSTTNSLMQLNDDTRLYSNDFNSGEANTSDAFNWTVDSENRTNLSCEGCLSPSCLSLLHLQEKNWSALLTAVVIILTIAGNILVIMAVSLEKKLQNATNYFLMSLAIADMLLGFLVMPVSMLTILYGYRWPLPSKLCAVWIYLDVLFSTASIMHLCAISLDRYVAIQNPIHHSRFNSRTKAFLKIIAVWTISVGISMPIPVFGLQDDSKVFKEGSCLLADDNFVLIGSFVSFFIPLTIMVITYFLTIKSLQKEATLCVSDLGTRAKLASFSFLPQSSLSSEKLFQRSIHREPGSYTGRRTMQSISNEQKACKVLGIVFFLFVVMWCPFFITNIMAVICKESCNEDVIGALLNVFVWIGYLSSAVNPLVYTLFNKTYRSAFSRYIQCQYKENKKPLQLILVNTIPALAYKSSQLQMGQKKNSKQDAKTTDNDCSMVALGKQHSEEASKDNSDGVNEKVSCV

[8] = target: Beta-2 adrenergic receptor (Homo sapiens, UniProt P07550); assay: Binding affinity to beta2 adrenergic receptor
[9] = target: 5-hydroxytryptamine receptor 7 (Homo sapiens, UniProt P34969); assay: Binding affinity to 5HT7 receptor
5-hydroxytryptamine receptor 7, sequence (P34969 whole entry): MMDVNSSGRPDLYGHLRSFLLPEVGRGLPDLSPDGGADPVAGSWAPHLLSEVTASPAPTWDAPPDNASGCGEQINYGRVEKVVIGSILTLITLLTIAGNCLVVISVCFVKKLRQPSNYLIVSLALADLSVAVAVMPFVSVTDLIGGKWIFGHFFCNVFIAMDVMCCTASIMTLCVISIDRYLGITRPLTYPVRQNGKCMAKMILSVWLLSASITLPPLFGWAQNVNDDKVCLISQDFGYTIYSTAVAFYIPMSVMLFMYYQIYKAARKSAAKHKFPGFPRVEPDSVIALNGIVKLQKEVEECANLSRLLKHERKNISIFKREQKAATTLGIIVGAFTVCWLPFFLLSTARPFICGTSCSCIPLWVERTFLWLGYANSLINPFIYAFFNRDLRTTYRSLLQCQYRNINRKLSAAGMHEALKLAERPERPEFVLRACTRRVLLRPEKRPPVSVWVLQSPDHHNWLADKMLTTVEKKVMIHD

D(2) dopamine receptor = D(2) dopamine receptor (Homo sapiens, UniProt P14416); assay: Binding affinity to dopamine D2 receptor
D(2) dopamine receptor, sequence (P14416 whole entry): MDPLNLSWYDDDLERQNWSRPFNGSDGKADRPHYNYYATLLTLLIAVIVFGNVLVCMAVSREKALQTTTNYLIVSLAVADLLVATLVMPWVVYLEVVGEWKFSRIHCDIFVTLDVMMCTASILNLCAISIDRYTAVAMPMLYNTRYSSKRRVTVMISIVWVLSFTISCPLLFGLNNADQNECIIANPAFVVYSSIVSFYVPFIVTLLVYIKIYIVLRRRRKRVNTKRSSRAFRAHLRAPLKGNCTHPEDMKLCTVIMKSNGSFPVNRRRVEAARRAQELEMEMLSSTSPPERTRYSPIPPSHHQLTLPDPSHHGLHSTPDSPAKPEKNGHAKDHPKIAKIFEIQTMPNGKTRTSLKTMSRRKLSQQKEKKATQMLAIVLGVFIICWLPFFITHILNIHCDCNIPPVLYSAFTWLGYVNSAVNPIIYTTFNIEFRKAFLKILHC

[10] = Metabolic stability in human liver microsomes assessed as half life; assay type: ADME, Microsome
[11] = Solubility of the compound; assay type: physicochemical
Zone of skin = assay: Permeability of the compound in human skin assessed as skin penetration relative to isobutylmethylxanthine; assay type: ADME, tissue-based
[12] = target: Voltage-gated inwardly rectifying potassium channel KCNH2 (Homo sapiens, UniProt Q12809); assay: Binding affinity to human ERG
Voltage-gated inwardly rectifying potassium channel KCNH2, sequence (Q12809 whole entry): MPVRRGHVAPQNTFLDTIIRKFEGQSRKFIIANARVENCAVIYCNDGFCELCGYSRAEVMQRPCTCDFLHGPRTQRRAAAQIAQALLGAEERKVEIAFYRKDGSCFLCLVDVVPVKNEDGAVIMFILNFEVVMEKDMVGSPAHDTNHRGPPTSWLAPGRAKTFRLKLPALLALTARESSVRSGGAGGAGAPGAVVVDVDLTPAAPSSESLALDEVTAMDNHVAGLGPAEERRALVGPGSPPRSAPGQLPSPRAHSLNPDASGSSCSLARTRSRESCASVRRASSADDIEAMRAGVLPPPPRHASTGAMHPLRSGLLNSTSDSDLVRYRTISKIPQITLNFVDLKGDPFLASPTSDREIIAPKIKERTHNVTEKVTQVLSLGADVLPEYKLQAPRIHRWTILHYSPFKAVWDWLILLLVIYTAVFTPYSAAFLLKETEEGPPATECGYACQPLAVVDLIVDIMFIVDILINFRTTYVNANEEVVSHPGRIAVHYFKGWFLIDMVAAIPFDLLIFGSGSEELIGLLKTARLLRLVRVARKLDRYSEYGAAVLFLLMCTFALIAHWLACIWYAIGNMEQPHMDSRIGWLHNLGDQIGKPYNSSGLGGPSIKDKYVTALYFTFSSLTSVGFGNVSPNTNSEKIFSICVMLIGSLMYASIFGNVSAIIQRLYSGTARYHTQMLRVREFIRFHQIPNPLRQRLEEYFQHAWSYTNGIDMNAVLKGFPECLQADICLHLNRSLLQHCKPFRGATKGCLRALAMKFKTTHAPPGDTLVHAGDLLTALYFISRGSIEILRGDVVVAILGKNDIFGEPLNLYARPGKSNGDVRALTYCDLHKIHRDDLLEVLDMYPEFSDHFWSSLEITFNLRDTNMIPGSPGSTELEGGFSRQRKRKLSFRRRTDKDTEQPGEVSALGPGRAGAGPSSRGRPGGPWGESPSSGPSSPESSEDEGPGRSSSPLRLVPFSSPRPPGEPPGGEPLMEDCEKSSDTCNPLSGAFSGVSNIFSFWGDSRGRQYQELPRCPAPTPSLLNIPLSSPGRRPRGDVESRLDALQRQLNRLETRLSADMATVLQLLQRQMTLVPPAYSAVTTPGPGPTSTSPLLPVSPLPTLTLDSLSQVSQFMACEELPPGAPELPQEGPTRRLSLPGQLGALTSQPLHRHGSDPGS

hERG (KCNH2) = hERG (KCNH2) (Homo sapiens, UniProt Q12809); assay: Inhibition of human ERG at 3 uM
hERG (KCNH2), sequence (Q12809 whole entry): as above

[13] = Metabolic stability in rat liver microsomes assessed as half life; assay type: ADME, Microsome
[14] = target: T3, Alpha-1B adrenergic receptor (Homo sapiens, UniProt P35368); assay: Binding affinity to adrenergic alpha-1b receptor
T3 sequence (P35368 whole entry): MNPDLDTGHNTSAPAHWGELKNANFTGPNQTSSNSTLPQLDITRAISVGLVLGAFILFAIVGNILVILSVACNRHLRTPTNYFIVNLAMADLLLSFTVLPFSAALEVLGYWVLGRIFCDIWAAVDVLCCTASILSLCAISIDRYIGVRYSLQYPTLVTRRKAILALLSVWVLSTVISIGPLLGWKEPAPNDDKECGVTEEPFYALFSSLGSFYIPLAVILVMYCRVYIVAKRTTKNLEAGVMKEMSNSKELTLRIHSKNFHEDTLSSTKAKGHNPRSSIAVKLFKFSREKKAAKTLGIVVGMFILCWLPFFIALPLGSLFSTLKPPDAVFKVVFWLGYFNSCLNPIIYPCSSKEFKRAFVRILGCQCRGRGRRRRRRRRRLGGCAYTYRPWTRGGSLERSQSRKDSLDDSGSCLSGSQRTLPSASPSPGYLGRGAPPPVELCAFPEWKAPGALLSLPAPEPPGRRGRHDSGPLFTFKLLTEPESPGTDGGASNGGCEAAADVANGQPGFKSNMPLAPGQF

[15] = Inhibition of CYP450; assay type: ADME
[16] = Apparent permeability from apical to basolateral side of cell membrane at 10 uM; assay type: ADME; settings: not told
[17] = target: T4, Alpha-1A adrenergic receptor (Homo sapiens, UniProt P35348); assay: Binding affinity to adrenergic Alpha-1A receptor
T4 sequence (P35348 whole entry): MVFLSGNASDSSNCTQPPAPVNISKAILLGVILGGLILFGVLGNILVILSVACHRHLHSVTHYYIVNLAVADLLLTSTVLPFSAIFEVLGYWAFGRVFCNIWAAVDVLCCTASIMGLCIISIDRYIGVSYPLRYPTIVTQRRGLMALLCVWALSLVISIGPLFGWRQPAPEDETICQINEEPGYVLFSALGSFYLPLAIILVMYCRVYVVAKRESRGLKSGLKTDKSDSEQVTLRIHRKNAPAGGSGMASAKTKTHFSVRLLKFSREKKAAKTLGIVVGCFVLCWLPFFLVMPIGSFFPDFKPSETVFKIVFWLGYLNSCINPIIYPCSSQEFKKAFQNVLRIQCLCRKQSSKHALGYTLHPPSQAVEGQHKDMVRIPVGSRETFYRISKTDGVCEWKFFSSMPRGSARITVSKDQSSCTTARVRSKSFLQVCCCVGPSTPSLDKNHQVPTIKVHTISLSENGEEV

D(4) dopamine receptor = target: T5, D(4) dopamine receptor (Homo sapiens, UniProt P21917); assay: Binding affinity to dopamine D4 receptor
T5 sequence (P21917 whole entry): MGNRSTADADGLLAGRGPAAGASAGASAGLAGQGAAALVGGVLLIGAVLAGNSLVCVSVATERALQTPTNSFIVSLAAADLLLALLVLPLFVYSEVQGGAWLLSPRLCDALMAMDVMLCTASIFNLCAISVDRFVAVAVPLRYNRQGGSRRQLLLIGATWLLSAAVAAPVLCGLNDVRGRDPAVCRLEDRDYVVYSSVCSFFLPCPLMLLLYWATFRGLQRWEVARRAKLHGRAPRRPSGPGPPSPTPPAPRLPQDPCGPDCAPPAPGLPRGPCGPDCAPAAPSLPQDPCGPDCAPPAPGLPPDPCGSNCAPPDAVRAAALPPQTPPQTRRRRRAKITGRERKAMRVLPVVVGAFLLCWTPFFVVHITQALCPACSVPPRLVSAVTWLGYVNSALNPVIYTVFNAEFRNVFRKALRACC

For `COc1ccc(N2CCN(Cc3c(C)nn(-c4ccc(F)cc4)c3C)CC2)cc1`, the IC50 (Protein smoothened [1]) was 1690 nM and the IC50 (Protein smoothened [2]) was 2000 nM.

`COc1ccc(N2CCN(Cc3cnn(-c4ccccc4)c3C)CC2)cc1` gave an IC50 (Protein smoothened [1]) of 105 nM and an IC50 (Protein smoothened [2]) of 126 nM.

In the case of `Cc1nn(-c2ccccc2)cc1CN1CCN(c2ccc(F)cc2)CC1`, the IC50 (Protein smoothened [1]) is reported as > 5000 nM and the IC50 (Protein smoothened [2]) is reported as > 5000 nM.

`Cc1nn(-c2ccccc2)c(Cl)c1CN1CCN(c2ccc(F)cc2)CC1` showed an IC50 (Protein smoothened [1]) of 1860 nM and an IC50 (Protein smoothened [2]) of 10 nM.

With `Cc1nn(-c2ccccc2)c(C)c1/C=N/N1CCN(Cc2ccccc2)CC1` the IC50 (Protein smoothened [1]) was 4.74 nM, the “inhibition (INH)” value (Mus musculus) was 3% and the IC50 (Protein smoothened [2]) was 25 nM.

For `COc1ccc(OC)c(C2CCN(Cc3cnn(-c4ccccc4F)c3C)C2)c1` (configuration not stated), the Ki [3] was 103 nM, the Ki [4] was > 1000 nM and the Ki [5] was 180 nM. The Ki (D(1A) dopamine receptor) was > 1000 nM, the Ki [6] was > 1000 nM and the Ki [7] was > 1000 nM. The IC50 (Protein smoothened [1]) was 40.8 nM, the Ki [8] was > 1000 nM and the Ki [9] was 15 nM. For the same molecule, the “hair growth inhibition (active/inactive call)” value (Mus musculus) was “Active”, the IC50 (Protein smoothened [2]) was 216 nM and the Ki (D(2) dopamine receptor) was > 1000 nM.

For `COc1ccc(N2CCN(Cc3cn(-c4ccccc4)nc3C)CC2)cc1`, the IC50 (Protein smoothened [1]) was > 5000 nM and the IC50 (Protein smoothened [2]) was > 5000 nM.

In the case of `Cc1c(CN2CCN(c3ccccc3)CC2)cnn1-c1ccccc1`, the IC50 (Protein smoothened [1]) is reported as 78.4 nM and the IC50 (Protein smoothened [2]) is reported as 96 nM.

With `COc1cccc(N2CCN(Cc3cnn(-c4ccc(F)cc4)c3C)CC2)c1` the IC50 (Protein smoothened [1]) was 64.7 nM and the IC50 (Protein smoothened [2]) was 5 nM.

With `COc1cccc(F)c1OC1CN(Cc2cnn(-c3ccccc3)c2C)C1` the half-life [10] was 30.2 min, the solubility [11] was 79 µg/mL (≈ 215 µM) and the Ratio (Zone of skin) was 0.52. For the same molecule, the Ki [3] was > 1000 nM, the Ki [12] was > 1000 nM and the inhibition at 3 µM (hERG (KCNH2)) was 56%. The half-life [13] was 9.7 min, the Ki [14] was > 1000 nM and the Ki [7] was > 1000 nM. For the same molecule, the “inhibition (INH)” value [15] was “Not Active”, the Papp A→B at 10 µM [16] was 11.3 ×10⁻⁶ cm/s and the Ki [17] was 76 nM. The IC50 (Protein smoothened [1]) was 8.27 nM, the “hair growth inhibition (active/inactive call)” value (Mus musculus) was “Active” and the IC50 (Protein smoothened [2]) was 124 nM. The Ki (D(4) dopamine receptor) was 148 nM and > 1000 nM.

With `COc1cccc(N2CCN(Cc3c(C)nn(-c4ccc(F)cc4)c3C)CC2)c1` the IC50 (Protein smoothened [1]) was 823 nM and the IC50 (Protein smoothened [2]) was 20 nM.

For `NCCCC(N)(C(=O)O)C(F)F` (configuration not stated) [EFLORNITHINE], the “inhibition (INH)” value (Mus musculus) was 13.9%.

For `Cc1c(CN2CCN(c3cccc(C(F)(F)F)c3)CC2)cnn1-c1ccccc1`, the IC50 (Protein smoothened [1]) was 328 nM and the IC50 (Protein smoothened [2]) was 333 nM.

For `COc1ccccc1N1CCN(Cc2c(C)nn(-c3ccccc3)c2C)CC1`, the IC50 (Protein smoothened [1]) was 1870 nM and the IC50 (Protein smoothened [2]) was > 5000 nM.
